Measurements from paper PMC3038857, “Using Nuclear Receptor Activity to Stratify Hepatocarcinogens” (PLoS ONE, 2011).

Key:
Rat Liver [1] = conditions: chronic rat study, liver; ref ToxRefDB; cited from earlier work
Rat Liver [2] = conditions: chronic rat study, liver; ref ToxRefDB; cited from earlier work; remark: listed apart in the source
LXRb (NR1H2) = target: T1, LXRb (NR1H2) (Homo sapiens, UniProt P55055); experiment: ATG_LXRb_TRANS: Factorial reporter gene assay (HepG2); format: cell-based; conditions: HepG2
T1 construct: expressed in transfected cells; host or cells: HepG2
T1 sequence (P55055 1-460): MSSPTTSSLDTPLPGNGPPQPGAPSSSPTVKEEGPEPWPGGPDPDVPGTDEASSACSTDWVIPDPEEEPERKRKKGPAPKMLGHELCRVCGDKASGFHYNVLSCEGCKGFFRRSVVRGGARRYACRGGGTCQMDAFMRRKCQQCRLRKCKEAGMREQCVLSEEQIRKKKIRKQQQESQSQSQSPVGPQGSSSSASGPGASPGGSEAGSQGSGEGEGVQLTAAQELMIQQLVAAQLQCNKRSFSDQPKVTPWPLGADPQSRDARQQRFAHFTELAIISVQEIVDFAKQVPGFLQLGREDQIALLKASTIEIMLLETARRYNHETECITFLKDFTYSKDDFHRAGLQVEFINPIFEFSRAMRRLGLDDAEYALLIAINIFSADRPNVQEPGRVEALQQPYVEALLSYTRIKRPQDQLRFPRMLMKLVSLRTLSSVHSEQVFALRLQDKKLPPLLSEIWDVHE
Description: (§1) A multiple reporter transcription unit (MRTU) library consisting of 48 transcription factor binding sites was transfected into the HepG2 human liver hepatoma cell line. In addition to the cis-acting reporter genes (CIS), a modification of the approach was used to generate a trans-system (TRANS) with a mammalian one-hybrid assay consisting of an additional 25 MRTU library reporting the activity of nuclear receptor super-family members. […] These assays were performed by Attagene Inc. (Morrisville NC) under contract to EPA.
(§2) In addition to the cis-acting reporter genes (CIS), a modification of the approach was used to generate a trans-system (TRANS) with a mammalian one-hybrid assay consisting of an additional 25 MRTU library reporting the activity of nuclear receptor super-family members. […] Chemicals were then tested in the CIS and TRANS assays at seven concentrations starting at the MTC and followed by three-fold serial dilutions. These assays were performed by Attagene Inc. (Morrisville NC) under contract to EPA. Detailed description of the methods, data and analysis methods for this dataset will be presented in a separate publication.

[3] = target: T2, AHR (aryl hydrocarbon receptor) (Homo sapiens, UniProt P35869); experiment: ATG_Ahr_CIS: Factorial reporter gene assay (multiplexed transcription reporter, HepG2); format: cell-based; conditions: HepG2
T2 construct: endogenous in cells; host or cells: HepG2
T2 sequence (P35869 11-848): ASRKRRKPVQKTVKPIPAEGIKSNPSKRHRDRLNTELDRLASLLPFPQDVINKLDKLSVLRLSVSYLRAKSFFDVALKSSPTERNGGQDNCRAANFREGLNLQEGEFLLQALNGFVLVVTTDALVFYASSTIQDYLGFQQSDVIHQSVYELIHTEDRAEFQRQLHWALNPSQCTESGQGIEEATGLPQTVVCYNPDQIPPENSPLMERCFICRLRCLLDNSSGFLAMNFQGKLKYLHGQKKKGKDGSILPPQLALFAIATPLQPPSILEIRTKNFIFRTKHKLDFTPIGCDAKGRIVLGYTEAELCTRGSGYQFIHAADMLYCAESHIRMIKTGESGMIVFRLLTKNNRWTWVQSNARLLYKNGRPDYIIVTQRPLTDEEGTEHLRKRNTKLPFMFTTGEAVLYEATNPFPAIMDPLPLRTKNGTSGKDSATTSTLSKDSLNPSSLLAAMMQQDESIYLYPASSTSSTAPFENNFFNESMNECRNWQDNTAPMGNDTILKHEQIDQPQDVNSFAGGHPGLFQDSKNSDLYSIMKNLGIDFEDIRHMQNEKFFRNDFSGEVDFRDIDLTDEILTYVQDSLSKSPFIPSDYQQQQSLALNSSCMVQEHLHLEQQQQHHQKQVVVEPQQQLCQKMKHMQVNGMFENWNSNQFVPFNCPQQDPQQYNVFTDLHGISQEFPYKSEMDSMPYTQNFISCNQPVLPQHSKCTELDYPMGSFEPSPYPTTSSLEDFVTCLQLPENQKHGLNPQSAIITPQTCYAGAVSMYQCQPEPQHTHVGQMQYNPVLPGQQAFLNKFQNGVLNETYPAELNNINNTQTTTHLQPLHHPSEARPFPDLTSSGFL
Description: as §1, §2

Rat Liver [4] = conditions: chronic rat study, liver; ref ToxRefDB; cited from earlier work; remark: listed apart in the source
HMGCS2 = experiment: CLZD_HMGCS2: Change in expression of HMGCS2 (primary human hepatocytes); format: cell-based; conditions: 24 hr
Description: This is a collection of multiplexed gene expression assays focused on Phase I and II xenobiotic metabolizing enzymes and transporters. Human primary cell cultures were treated with chemicals at 5 concentrations (0.004-40 [drawing 42] M) for 6, 24 and 48 hr. Concentration- and time-response profiles of chemicals were measured by the expression of key nuclear receptor target genes, activities of CYP1A enzymes (EROD), and cell morphology. Fourteen gene targets were monitored by quantitative nuclease protection assay including: six representative cytochrome P-450 genes, four hepatic transporters, three Phase II conjugating enzymes, and one endogenous metabolism gene involved in cholesterol synthesis. The target genes associated with nuclear receptor pathways are as follows: [drawing 43] and [drawing 44] with [drawing 45]; [drawing 46] , [drawing 47] , [drawing 48] , [drawing 49] , [drawing 50] and [drawing 51] with [drawing 52]; [drawing 53] , [drawing 54] , [drawing 55] and [drawing 56] with [drawing 57]; [drawing 58] with [drawing 59]; and [drawing 60] with [drawing 61] . Assays were run in primary human hepatocyte cultures by CellzDirect Invitrogen Inc. (Durham, NC), in collaboration with EPA.
Multiplexed Gene Expression in Human Primary Hepatocytes: This is a collection of multiplexed gene expression assays focused on Phase I and II metabolic enzymes and transporters. […] Fourteen gene targets were monitored by quantitative nuclease protection assay: six representative cytochrome P450 genes, four hepatic transporters, three Phase II conjugating enzymes, and one endogenous metabolism gene involved in cholesterol synthesis. Cells were exposed at 5 concentrations (0.004-40 µM) for 6, 24 or 48 hr. Gene targets are sentinels for five nuclear receptor signaling pathways: AhR, CAR, PXR, FXR, and PPARα. All gene are associated with nuclear receptor pathways: CYP1A1 and CYP1A2 with AHR; ABCB1, ABCG2, CYP2B6, CYP2C9, CYP2C19 and UGT1A1 with CAR; CYP3A4, GSTA2, SLCO1B1 and SULT2A1 with PXR; HMGCS2 with PPARA; and ABCB11 with FXR. […] Detailed description of the methods, data and analysis methods for this dataset will be presented in a separate publication.

Row | SMILES | CHR_Rat_Liver_3_NeoplasticLesion (Rat Liver [1]) | CHR_Rat_Liver_2_PreneoplasticLesion (Rat Liver [2]) | ATG_LXRb_TRANS (LXRb (NR1H2)) | ATG_Ahr_CIS [3] | CHR_Rat_Liver_1_AnyLesion (Rat Liver [4]) | CLZD_HMGCS2_24 (HMGCS2)
1 | COC(=O)c1ccccc1S(=O)(=O)NC(=O)Nc1nc(C)nc(OC)n1 [row 210] | 0 | 0 | 4.215 | 4.337 | 0 | 
2 | C[N+]1(C)CCCCC1.[Cl-] [row 193] | 0 | 0 |  |  | 0 | 5.889
